Here are results for two compounds from US20140024700A1, “BLOOD-BORNE MIRNAS AS SURROGATE MARKERS OF DRUG EFFICACY FOR CARDIAC CONDITIONS” (miRagen Therapeutics, Inc., priority 2010, published 2014).

Data set [1] concerns Dahl salt-sensitive rats. As to the kind of experiment: Dahl salt-sensitive rat model, 6% NaCl diet: body weight and survival (Example 3). Format: in vivo.
The subject of data set [2] is miR-208a, miR-499, miR-208b, Myh6, Myh7b, Myh7, Dynlt1, Vcpip, Tegt. The data set is described as follows: Cardiac tissue real-time PCR, 6% NaCl diet (Example 3). The data set is classed as in vivo, rat. The conditions noted are these: M-10101 25 mg/kg sc, Captopril po daily. The procedure: (§1) One week following the initiation of the 6.0% NaCl diet, rats were dosed subcutaneously (sc) with saline or oligonucleotides (M−10101, 5′-CTTTTTGCTCGTCTTA-3′ (SEQ ID NO: 12) or M-10591, 5′-TCCTAGAAAGAGTAGA-3′ (SEQ ID NO:13)) at 25 mg/kg every 2 weeks. Captopril or water were dosed daily by oral gavage. Echocardiography was performed every 2 weeks starting one week post […] dosing. The Captopril dose for rat was selected to match the standard human dose in man.
For in vivo real-time PCR analysis, RNA was extracted from cardiac tissue using Trizol (Invitrogen) after which two μg RNA from each tissue sample was used to generate cDNA using Super Script II reverse transcriptase per manufacturer's specifications (Invitrogen). To detect the level of miR-208 RT-PCR was performed using the Taqman MicroRNA assay (Applied Biosystems, ABI) according the manufacturer's recommendations, using 10-100 ng of total RNA. The expression of a subset of genes was analyzed by quantitative real time PCR using Taqman probes purchased from AB.
For orientation: Quantitative PCR measures a nucleic acid by following its amplification.

Data set [3] relates to plasma miRNAs. As to the kind of experiment: Real-time PCR of plasma miRNAs, 6% NaCl diet (Example 3). The data set is classed as in vivo, rat. The procedure:
as §1
Quantitative real-time PCR analysis from plasma. RNA from plasma samples was isolated using Trizol LS Reagent (Invitrogen), using the manufacturer's protocol. Prior to RNA isolation, […] of two different synthetic C. elegans miRNA sequences were added to serve as internal controls for normalization of target miRNAs. The C. elegans sequences used were cel-miR-2 ([…], SEQ ID NO:5), and cel-lin-4 ([…]; SEQ ID NO:6) (Dharmacon). The final RNA pellet was re-suspended in a final volume equal to the initial plasma volume and 5 μl was used for subsequent RT-PCR reactions, as described above.

Data set [4] relates to miR-208a, Myh6, Myh7. The data set is described as follows: Cardiac tissue markers by Taqman RT-PCR, 4% NaCl diet (Example 2). The data set is classed as in vivo, rat. The conditions noted are these: 25 mg/kg sc every 2 weeks; for Myh6 expression in cardiac tissue: 25 mg/kg. As for the experimental part:
The flowing experimental groups were tested:
Following catheter implant surgery, high-salt diet was initiated. […] Animals were sacrificed 8 weeks after the initial injection.
Tissue RNA was isolated using standard Trizol RNA isolation.

Turning to `C[C@H](CS)C(=O)N1CCC[C@H]1C(=O)O` [Captopril, reference compound], in data set [1] (1.5 mg/kg Captopril po daily), the “Survival (Kaplan-Meier)” value is listed as “pronounced decrease in survival”. For the same compound, the Body weight entry in data set [1] (15 mg/kg Captopril po daily) is given as “slightly reduced the high-salt (HS) diet-induced decrease in body weight”. In data set [2], the “Myh7b levels in the heart” value is “no apparent effect”, the “αMHC (Myh6) in the heart (reduced by HS diet)” value is “normalized” and the “βMHC (Myh7) expression (increase induced by HS diet)” value was “reduced the increase”. Also, in data set [3], the “Plasma miR-21” value is given as “reduced specifically”; the “Plasma miR-150” value was “reduced specifically”; the “Plasma miR-223” value is on record as “significantly reduced”; the “Plasma miR-423-5p, miR-106b, miR-16, miR-92a, miR-378, miR-210, miR-378*, miR-20b and miR-93” value was “decreased”.
Regarding “M-10591: control oligonucleotide targeting miR-67 from C. elegans; 5′-TCCTAGAAAGAGTAGA-3′ (SEQ ID NO:13) (LNA-modified control oligonucleotide, pattern not given here) [reference compound]”, in data set [4], the “Myh7 expression in cardiac tissue” value is listed as “significantly increased” and the “Myh6 expression in cardiac tissue” value was “significant decrease”. Also, the “Myh6 expression in cardiac tissue” value in data set [4] (listed as control oligonucleotide) is listed as “no effect”. In addition, the Body weight entry in data set [1] (oligonucleotide 25 mg/kg sc every 2 weeks) is “no apparent effect on weight gain”.
